Experimental data: ChEMBL document CHEMBL5244273, “Tuberculosis: An Overview of the Immunogenic Response, Disease Progression, and Medicinal Chemistry Efforts in the Last Decade toward the Development of Potential Drugs for Extensively Drug-Resistant Tuberculosis Strains” (J Med Chem, 2021)
Converted amounts (≈) assume the structure as drawn.

Experiments:
[1] = test system: Mycobacterium tuberculosis; test: Antimycobacterial activity against Mycobacterium tuberculosis H37Rv assessed as inhibition of bacterial growth by resazurin dye based fluorescence analysis; type: functional
[2] = test system: Mycobacterium tuberculosis; test: Potentiation of ethionamide induced antibacterial activity against Mycobacterium tuberculosis H37Rv expressing GFP incubated for 5 days by fluorescence based analysis; type: functional, organism-based; settings: 120 h
[3] = test system: Mycobacterium tuberculosis; test: Antimycobacterial activity against Mycobacterium tuberculosis H37Rv infected in human THP-1 cells assessed as inhibition of bacterial growth; type: functional, organism-based

SMILES | MIC [1] [µM] | EC50 [2] [nM] | IC50 [3] [nM]
COc1ccc(Cn2cc(-c3ccc(S(=O)(=O)NCCO)cc3)nn2)cc1 | 0.1 (≈ 0.0388 µg/mL) |  | 
NC(=O)CNS(=O)(=O)c1ccc(-c2cn(Cc3ccc(F)cc3)nn2)cc1 | 0.1 (≈ 0.0389 µg/mL) |  | 
Cc1cc(Cn2nnc(-c3ccc(S(=O)(=O)NCC(N)=O)cc3)n2)ccn1 | 0.1 (≈ 0.0387 µg/mL) |  | 
COc1cc(-c2nnn(Cc3ccc(C#N)cn3)n2)ccc1S(=O)(=O)NCCO | 0.1 (≈ 0.0415 µg/mL) |  | 
NC(=O)CNS(=O)(=O)c1ccc(-c2cn(CC3CCC(F)(F)CC3)nn2)cc1 | 0.1 (≈ 0.0413 µg/mL) |  | 
O=S(=O)(NCCO)c1ccc(-c2nnn(Cc3ccc(F)cn3)n2)cc1F | 0.1 (≈ 0.0396 µg/mL) |  | 
CC(c1ccc(F)cc1)n1nnc(-c2ccc(S(=O)(=O)NCCO)cc2)n1 (configuration not stated) | 0.1 (≈ 0.0391 µg/mL) |  | 
O=S(=O)(NCCO)c1ccc(-c2cn(Cc3ccc(F)cn3)nn2)cc1 | 0.1 (≈ 0.0377 µg/mL) |  | 
N#CCNS(=O)(=O)c1ccc(-c2nnn(Cc3ccncn3)n2)cc1 | 0.1 (≈ 0.0356 µg/mL) |  | 
O=S(=O)(NCCO)c1ccc(-c2nnn(CC3CCCCO3)n2)cc1F (configuration not stated) | 0.1 (≈ 0.0385 µg/mL) |  | 
O=S(=O)(NCCO)c1ccc(-c2nnn(CC3CCCCO3)n2)c(F)c1F (configuration not stated) | 0.1 (≈ 0.0403 µg/mL) |  | 
NC(=O)CNS(=O)(=O)c1ccc(-c2nnn(Cc3ccc(Cl)cn3)n2)cc1 | 0.1 (≈ 0.0408 µg/mL) |  | 
C[C@@H](O)CNS(=O)(=O)c1ccc(-c2cn(Cc3ccc(F)cc3)nn2)cc1 | 0.1 (≈ 0.039 µg/mL) |  | 
O=C(CCC(F)(F)F)N1CCC2(CC1)CC(Br)=NO2 |  | < 38 | 50
COc1cnc(Cn2nnc(-c3ccc(S(=O)(=O)NCC#N)cc3)n2)cn1 | 0.1 (≈ 0.0386 µg/mL) |  | 
C[C@H](c1ccc(F)cn1)n1nnc(-c2ccc(S(=O)(=O)NCCO)cc2)n1 | 0.1 (≈ 0.0392 µg/mL) |  | 
O=S(=O)(NCCO)c1c(F)cc(-c2nnn(Cc3ccc(F)cn3)n2)cc1F | 0.1 (≈ 0.0414 µg/mL) |  | 
O=S(=O)(NCCO)c1ccc(-c2nnn(CC3CCOCC3)n2)cc1F | 0.1 (≈ 0.0385 µg/mL) |  | 
Cc1ccc(Cn2nnc(-c3ccc(S(=O)(=O)NCCO)cc3)n2)cn1 | 0.1 (≈ 0.0374 µg/mL) |  | 
O=S(=O)(NCCO)c1ccc(-c2nnn(CC3CCOCC3)n2)cc1 | 0.1 (≈ 0.0367 µg/mL) |  | 
COc1cc(-c2nnn(Cc3ccncc3)n2)ccc1S(=O)(=O)NCCO | 0.1 (≈ 0.039 µg/mL) |  | 
N#CCNS(=O)(=O)c1ccc(-c2nnn(Cc3ccncc3)n2)cc1 | 0.1 (≈ 0.0355 µg/mL) |  | 
CC(c1ccc(F)cc1)n1cc(-c2ccc(S(=O)(=O)NCCO)cc2)nn1 (configuration not stated) | 0.1 (≈ 0.039 µg/mL) |  | 
COc1cc(-c2nnn(Cc3ccncc3)n2)ccc1S(=O)(=O)NCC(N)=O | 0.1 (≈ 0.0403 µg/mL) |  | 
Cc1ccc(Cn2nnc(-c3ccc(S(=O)(=O)NCC(N)=O)cc3)n2)nc1 | 0.1 (≈ 0.0387 µg/mL) |  | 
O=S(=O)(NCCO)c1ccc(-c2cn(Cc3ccc(F)cc3)nn2)cc1 | 0.1 (≈ 0.0376 µg/mL) |  | 

SMILES | MIC [1] [µM] | EC50 [2] [nM] | IC50 [3] [nM]
O=S(=O)(NCCO)c1ccc(-c2nnn(Cc3cccnc3)n2)cc1 | 0.1 (≈ 0.036 µg/mL) |  | 
COC1=NOC2(CCN(C(=O)CCCl)CC2)C1 |  | < 38 | 50
COc1ccc(Cn2nnc(-c3ccc(S(=O)(=O)NCC#N)cc3)n2)cn1 | 0.1 (≈ 0.0385 µg/mL) |  | 
O=S(=O)(NCCO)c1ccc(-c2nnn(Cc3ccc(F)cn3)n2)cc1Cl | 0.1 (≈ 0.0413 µg/mL) |  | 
O=C(CCCl)N1CCC2(CC1)CC(C(F)(F)F)=NO2 |  | < 38 | 50
CCC1=NOC2(CCN(C(=O)CCC(F)(F)F)CC2)C1 |  | < 38 | 50
CCOC1=NOC2(CCN(C(=O)CCC(F)(F)F)CC2)C1 |  | < 38 | 50
Cc1cc(S(=O)(=O)NCCO)c(F)cc1-c1nnn(Cc2ccc(F)cn2)n1 | 0.1 (≈ 0.041 µg/mL) |  | 
O=C(CCC(F)(F)F)N1CCC2(CC1)CC(OCC(F)(F)F)=NO2 |  | < 38 | 50
O=C(CCC(F)(F)F)N1CCC(c2cnc(F)c(F)c2)CC1 |  | < 150 | 10
O=S(=O)(NCCO)c1ccc(-c2nnn(Cc3ccc(F)cc3)n2)cc1F | 0.1 (≈ 0.0395 µg/mL) |  | 
CCCOC1=NOC2(CCN(C(=O)CCC(F)(F)F)CC2)C1 |  | < 38 | 50
CCCCCCOC1=NOC2(CCN(C(=O)CCC(F)(F)F)CC2)C1 |  | < 38 | 50
O=C(CCC(F)(F)F)N1CCC(c2ncc(F)cc2F)CC1 |  | < 150 | 10
NC(=O)CNS(=O)(=O)c1ccc(-c2nnn(Cc3ccncc3)n2)cc1 | 0.1 (≈ 0.0373 µg/mL) |  | 
O=S(=O)(NCCO)c1ccc(-c2nnn(CC3CCCCC3)n2)cc1 | 0.1 (≈ 0.0365 µg/mL) |  | 
O=S(=O)(NCCO)c1ccc(-c2nnn(Cc3ccc(OC(F)(F)F)cc3)n2)cc1 | 0.1 (≈ 0.0443 µg/mL) |  | 
N#CCNS(=O)(=O)c1ccc(-c2cn(Cc3ccc(F)cn3)nn2)cc1 | 0.1 (≈ 0.0372 µg/mL) |  | 
O=C(CCC(F)(F)F)N1CCC(F)(c2cccnc2)CC1 |  | < 150 | 10
COC(=O)CNS(=O)(=O)c1ccc(-c2nnn(Cc3ccncc3)n2)cc1 | 0.1 (≈ 0.0388 µg/mL) |  | 
Cc1cc(S(=O)(=O)NCCO)ccc1-c1nnn(CC2CCCCO2)n1 (configuration not stated) | 0.1 (≈ 0.0381 µg/mL) |  | 
COc1cc(-c2nnn(Cc3ccc(F)cc3)n2)ccc1S(=O)(=O)NCCO | 0.1 (≈ 0.0407 µg/mL) |  | 
O=S(=O)(NCCO)c1c(F)cc(-c2nnn(CC3CCCCO3)n2)cc1F (configuration not stated) | 0.1 (≈ 0.0403 µg/mL) |  | 
COc1cc(-c2nnn(Cc3ccc(C#N)cc3)n2)ccc1S(=O)(=O)NCC(N)=O | 0.1 (≈ 0.0427 µg/mL) |  | 
CNS(=O)(=O)c1ccc(-c2nnn(Cc3ccncc3)n2)cc1OC | 0.1 (≈ 0.036 µg/mL) |  | 
